B1: Thaumatin II: protein of SEQ ID NO: 2, purity greater than 90%, recombinantly expressed in plants (protein, listed as Thaumatococcus daniellii)
chain: ATFEIVNRCSYTVWAAASKGDAALDAGGRQLNSGESWTINVEPGTKGGKIWARTDCYFDDSGRGICRTGDCGGLLQCKRFGRPPTTLAEFSLNQYGKDYIDISNIKGFNVPMDFSPTTRGCRGVRCAADIVGQCPAKLKAPGGGCNDACTVFQTSEYCCTTGKCGPTEYSRFFKRLCPDAFSYVLDKPTTVTCPGSSNYRVTFCPTA

Tests used:
[1] = Round table evaluation of sweetness intensity (SEV) against sucrose reference samples; type: in vivo; settings: mean of test panelists
Experimental: • Round table evaluations were performed with test panelists. Equal sweet 5 SEV concentrations in neutral pH water were made for Thaumatin II (purity greater than 90%), Mogroside V, and Siamenoside I. These equal sweet solutions were also mixed at 50% of Thaumatin II and 50% Mogroside V or Siamenoside I and compared to the individual components. The components of the test compositions are described in the below tables. The mixed compositions were calculated using the Beidler mixture equation for the sweeteners. The Beidler mixture equation for sweeteners is as follows: […]
The concentration of each component in the mixture in ppm is divided by SEV (c/R) and is plotted against concentration, c. The […]. The y-intercept of the linear regression multiplied by Rmaxis the half-maximal sweetness concentration, 1/K. Rmax and 1/K are the two parameters used in the Beidler equation. Mixtures were tasted in comparison to reference samples for the panelists to determine SEV values. References samples were 3%, 4%, 5%, 6%, 7%, and 8% sucrose in neutral pH water. The test samples were served in 2 ounce soufflé cups (approximately 60 ml) coded with 3-digit codes at room temperature. A two minute wait period between samples was enforced. Water and unsalted crackers was available for the panelists to clear their palates before and during testing. Results were collected for calculating approximate SEV level of each test sample. • The test products analyzed in this experiment are described below in Table 1.

[2] = Round table qualitative assessment of quality of sweetness and undesirable attributes, scale 1-10; type: in vivo; settings: for Off taste (lower better) / Quality of sweetness (higher better): scale of 1-10, 6 panelists; for Quality of sweetness (higher better): 5% sucrose control
Experimental: • Round table evaluations were performed with 6 test panelists. Equal sweet 5 SEV concentrations in neutral pH water were made for Thaumatin II (purity greater than 90%), Mogroside V, and Siamenoside I. These equal sweet solutions were also mixed at 50% of Thaumatin II and 50% Mogroside V or Siamenoside I and compared to the individual components. All solutions were coded and blinded from panelists. Panelists were asked to provide a qualitative assessment on a scale of 1-10 of the quality of sweetness (10 being the highest quality of sweetness) and undesirable attributes (10 being most undesirable) of each solution using a 5% sucrose solution as a control.

[3] = summary of Example 2, compared with sucrose

Molecule	Sweetness intensity determined, SEV ([1]; 250 ppm in neutral pH water) [SEV]	Off taste (lower better) ([2]; 250 ppm in neutral pH water)	Quality of sweetness (higher better) ([2]; 250 ppm in neutral pH water)	Sweetness quality and off taste, in words ([2]; summary of Example 2)	Sweetness onset, in words [2, 3]	Sweetness intensity determined, SEV ([1]; 7 ppm in neutral pH water) [SEV]	Off taste (lower better) ([2]; 7 ppm in neutral pH water)	Quality of sweetness (higher better) ([2]; 7 ppm in neutral pH water)	Sweet aftertaste, in words [2, 3]
C[C@H](CC[C@@H](O[C@@H]1O[C@H](CO[C@@H]2O[C@H](CO)[C@@H](O)[C@H](O)[C@H]2O)[C@@H](O)[C@H](O)[C@H]1O[C@@H]1O[C@H](CO)[C@@H](O)[C@H](O)[C@H]1O)C(C)(C)O)[C@H]1CC[C@@]2(C)[C@@H]3CC=C4[C@@H](CC[C@H](O[C@@H]5O[C@H](CO[C@@H]6O[C@H](CO)[C@@H](O)[C@H](O)[C@H]6O)[C@@H](O)[C@H](O)[C@H]5O)C4(C)C)[C@]3(C)[C@H](O)C[C@]12C [Mogroside V]	5.3	3.3	7.5	very mild off notes were detected	rapid	–	–	–	–
C[C@H](CC[C@@H](O[C@@H]1O[C@H](CO[C@@H]2O[C@H](CO)[C@@H](O)[C@H](O)[C@H]2O)[C@@H](O)[C@H](O)[C@H]1O[C@@H]1O[C@H](CO)[C@@H](O)[C@H](O)[C@H]1O)C(C)(C)O)[C@H]1CC[C@@]2(C)[C@@H]3CC=C4[C@@H](CC[C@H](O[C@@H]5O[C@H](CO)[C@@H](O)[C@H](O)[C@H]5O)C4(C)C)[C@]3(C)[C@H](O)C[C@]12C [Siamenoside I]	6.0	2.6	7.8	very mild off notes were detected	rapid	–	–	–	–
B1	–	–	–	clean sweetness without any off taste	slightly delayed	4.8	4.9	5.3	lasted longer

Source: patent US20240373891A1, “SWEETENER BLEND COMPRISING THAUMATIN AND MOGROSIDES” (NOMAD BIOSCIENCE GMBH, priority 2021, published 2024)
